In ChEMBL document CHEMBL5247632, “Current approaches and strategies to identify Hedgehog signaling pathway inhibitors for cancer therapy” (Eur J Med Chem, 2022):
Numbered stars: 1 amine (or outer) side, 2 acyl side, 3 side chain; on linkers, the order of the positions; unused ones are H or OH. Bridge positions count the residues as written; N and C are the ends. Peptide text beside a SMILES is read from it. CH2CH2 = C(C[*:2])[*:1]

Columns and labels:
Protein smoothened = Protein smoothened (Homo sapiens, UniProt Q99835, D473H); experiment: Antagonist activity at SMO D473H mutant (unknown origin) expressed in mouse TM3 cells coexpressing Gli-luc reporter gene assessed as inhibition of Hh-Ag1.5 induced Gli luciferase activity incubated for 48 hrs by luminescence assay; format: cell-based
[1] = Inhibition of hedgehog signalling pathway in mouse NIH3T3 cells by Gli-Bla reporter assay; format: cell-based
Sonic hedgehog protein = Sonic hedgehog protein (Homo sapiens, UniProt Q15465); experiment: Binding affinity to Shh (unknown origin) assessed as dissociation constant
[2] = Inhibition of hedgehog signalling in Shh-stimulated mouse NIH3T3 cells coexpressing firefly luciferase gene under control of Gli-promoter and renilla gene under control of constitutive promoter assessed as inhibition of Shh-N induced luciferase expression by dual luciferase reporter assay; format: cell-based
[3] = Inhibition of hedgehog signalling pathway in mouse Shh Light II cells expressing Gli-luciferase reporter gene assessed as inhibition of SHHN-induced luciferase activity; format: cell-based

Sonic hedgehog protein, sequence (Q15465 24-197 limits assumed): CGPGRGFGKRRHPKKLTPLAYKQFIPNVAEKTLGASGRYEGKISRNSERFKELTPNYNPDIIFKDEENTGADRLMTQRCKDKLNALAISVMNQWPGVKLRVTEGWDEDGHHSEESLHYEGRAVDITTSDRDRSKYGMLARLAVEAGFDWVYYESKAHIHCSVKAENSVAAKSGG
Protein smoothened, sequence (Q99835 28-787 D473H limits assumed): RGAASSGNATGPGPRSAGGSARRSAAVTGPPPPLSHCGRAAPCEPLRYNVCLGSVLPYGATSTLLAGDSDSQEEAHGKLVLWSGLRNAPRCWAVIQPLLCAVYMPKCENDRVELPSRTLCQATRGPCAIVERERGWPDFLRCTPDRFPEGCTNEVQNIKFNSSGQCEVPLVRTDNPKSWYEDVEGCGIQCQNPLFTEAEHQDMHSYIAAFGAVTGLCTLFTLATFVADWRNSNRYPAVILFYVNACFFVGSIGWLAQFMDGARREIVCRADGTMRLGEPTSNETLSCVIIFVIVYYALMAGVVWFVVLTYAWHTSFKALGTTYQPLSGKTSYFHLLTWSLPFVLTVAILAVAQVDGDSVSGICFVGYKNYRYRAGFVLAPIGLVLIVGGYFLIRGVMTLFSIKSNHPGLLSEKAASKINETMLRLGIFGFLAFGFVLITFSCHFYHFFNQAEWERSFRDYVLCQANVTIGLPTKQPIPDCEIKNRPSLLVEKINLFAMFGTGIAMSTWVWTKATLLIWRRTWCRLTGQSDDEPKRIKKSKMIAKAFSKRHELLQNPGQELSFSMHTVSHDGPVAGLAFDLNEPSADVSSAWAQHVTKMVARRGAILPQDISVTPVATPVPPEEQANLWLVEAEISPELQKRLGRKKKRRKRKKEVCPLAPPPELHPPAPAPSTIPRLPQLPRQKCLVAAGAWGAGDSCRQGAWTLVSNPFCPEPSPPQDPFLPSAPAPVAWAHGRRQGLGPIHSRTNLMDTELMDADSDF

SMILES: CC1C(=O)N(c2ccc(Cl)cc2)C(=O)N1Cc1ccccc1 (stereo not given)
- IC50 (Protein smoothened): 50 nM

SMILES: CS(=O)(=O)c1ccc(C(=O)Nc2ccc(Cl)c(-c3ccccn3)c2)c(Cl)c1 [VISMODEGIB]
- IC50 [1]: 7 nM

SMILES: CSCC[C@@H]1NC(=O)[C@H](C)NC(=O)[C@H](CCC(=O)O)NC(=O)[C@@H](NC(=O)[C@H](Cc2c[nH]c3ccccc23)NC(=O)[C@H](CO)NC(=O)[C@H](CC(C)C)NC(=O)[C@@H](NC(C)=O)[C@@H](C)O)Cc2ccc(cc2)OCCSC[C@@H](C(=O)N[C@H](C(=O)N[C@@H](CC(=O)O)C(=O)O)[C@@H](C)O)NC(=O)[C@H](CCSC)NC(=O)[C@H](CC(=O)O)NC1=O (Ac-TLSWYEAMDMCTD-OH; linker 5-11 via CH2CH2)
- Kd (Sonic hedgehog protein): 170 nM
- IC50 [2]: 250 nM

SMILES: CCC(C)n1ncn(-c2ccc(N3CCN(c4ccc(OCC5COC(Cn6cncn6)(c6ccc(Cl)cc6Cl)O5)cc4)CC3)cc2)c1=O (stereo not given) [ITRACONAZOLE]
- IC50 [3]: 500 nM
